Measured values from patent publication US9988378B2, “1 H-pyrazole and 4,5-disubstituted thiazole inhibitors of SYK” (Hoffmann-La Roche Inc., priority 2012, dated 2018).
pIC50: −log10 of the molar value.

Columns and labels:
[1] = target: T1, recombinant human SYK360-635 (Homo sapiens, UniProt P43405); assay: SYK kinase assay, 33P ATP filtration (ENZYME_FILTRATION_IC50); assay type: biochemical; settings: SYK aa 360-635 0.5 nM, ATP 20 μM, peptide 5 μM, 30° C. 15 min
T1 construct: truncated construct of Spleen Tyrosine Kinase aa 360-635; made in house
Description: Determination of IC50 of Spleen Tyrosine Kinase (SYK) Inhibition:
SYK kinase assay is a standard kinase assay adapted to a 96 well plate format. This assay is performed in 96-well format for IC50 determination with […] which represented 10 half log dilutions and a 40 μL reaction volume. The assay measures the incorporation of radiolabeled ^33P ATP into an N-terminally biotinylated peptide substrate, derived from naturally occurring phosphoacceptor consensus sequence (Biotin-11aa DY*E). Phosphorylated products were detected upon termination of reactions with EDTA and the addition of Streptavidin coated beads. Representative results are in Table II above.
Assay plates: 96-well MultiScreen 0.65 um filter plates (Millipore Cat. No.: MADVNOB10) Streptavidin coated beads: Streptavidin Sepharose™, suspension 5.0 mL, in 50 mM EDTA/PBS diluted (1:100), (Amersham, Cat. No.: 17-5113-01)
Compounds: 10 mM in 100% dimethylsulfoxide (DMSO), final conc.: compound 0.003-100 uM in 10% DMSO
Enzyme: SYK RPA purified, truncated construct of Spleen Tyrosine Kinase aa 360-635, stock solution 1 mg/mL, MW: 31.2 KDa, final conc.:0.0005 μM.
Peptide 1: biotinylated peptide is derived from a naturally occurring phosphor-acceptor consensus sequence (Biotin-EPEGDYEEVLE), special order from QCB, stock solution 20 mM, final conc.: 5.0 μM.
ATP: Adenosine-5′-triphosphate 20 mM, (ROCHE Cat. No.: 93202720), final concentration: 20 μM
Buffer: HEPES: 2-Hydroxyethyl piperazine-2-ethanesulfonic acid (Sigma, Cat. No.: H-3375) final concentration: 50 mM HEPES pH7.5
BSA: Bovine Serum Albumin Fraction V, fatty acid free (Roche Diagnostics GmbH, Cat. No. 9100221) diluted to a final concentration of 0.1%
EDTA: EDTA stock solution 500 mM, (GIBCO, Cat. No.: 15575-038) final concentration: 0.1 mM
DTT: 1,4-Dithiothreitol (Roche Diagnostics GmbH, Cat. No.: 197777), final conc.: 1 mM MgCl2×6H2O: MERCK, Cat. No.: 105833.1000, final concentration: 10 mM
Assay Dilution Buffer (ADB): 50 mM HEPES, 0.1 mM EGTA, 0.1 mM Na Vanadate, 0.1 mM β-glycerophosphate, 10 mM MgCl2, 1 mM DTT, 0.1% BSA, pH 7.5
Bead wash buffer: 10 g/L PBS (Phosphate buffered saline) with 2M NaCl+1% phosphoric acid.
In 40 μL volume, 26 μL of ADB diluted, purified recombinant human SYK360-635 [0.5 nM] was mixed with 4 μL of 10× concentrations of the test compounds, [usually 100 μM-0.003 μM] in [10%] DMSO and the mixture was incubated for 10 min at RT.
The kinase reaction was initiated by the addition of 10 μL 4× substrate cocktail containing the DYE peptide substrate [0 or 5 μM], ATP [20 μM] and ^33PγATP [2 μCi/rxn]. After incubation at 30° C. for 15 min, the reaction was terminated by the transfer of 25 μL pf the reaction sample to a 96 well 0.65 μm Millipore MADVNOB membrane/plate containing 200 μL 5 mM EDTA and 20% Streptavidine coated beads in PBS.
The unbound radionucleotides were washed under vacuum with 3×250 μL 2M NaCl; 2×250 μL 2M NaCl+1% phosphoric acid; 1×250 μL H2O. After the last wash membrane/plates were transferred to an adaptor plate, heat dried for 15 min at 60° C., and 50 μL scintillation cocktail was added to each well and 4 h later the amount of radioactivity was counted in a top counter.
The percent inhibition was calculated based on the uninhibited enzyme rate: % Inhibition=100/(1+(IC50/Inhibitor conc)^n)
The IC50 was calculated using a non-linear curve fit with XLfit software (ID Business Solution Ltd., Guilford, Surrey, UK).

[2] = system: RAMOS; assay: RAMOS_V2_IC50; assay type: cell-based; settings: Homo sapiens
[3] = system: human whole blood; assay: IC50: human whole blood; assay type: cell-based

Row | pIC50 [1] | pIC50 [2] | pIC50 [3] | SMILES
1 | 6.12 | 5.45 | < 4.30 | CC(C)NC(=O)c1c[nH]nc1-c1nc(-c2ccccc2)cs1 [Compound I-17, N-isopropyl-3-(4-phenylthiazol-2-yl)-1H-pyrazole-4-carboxamide]
2 | < 5.00 | < 4.47 |  | CCOC(=O)c1c[nH]nc1-c1nc2c(s1)CCC2 [Compound I-15, ethyl 3-(5,6-dihydro-4H-cyclopenta[d]thiazol-2-yl)-1H-pyrazole-4-carboxylate]
3 | 5.34 | 5.28 |  | O=C(Nc1c[nH]nc1-c1nc2ccccc2s1)C1CCOCC1 [Compound I-25, Tetrahydro-pyran-4-carboxylic acid (3-benzothiazol-2-yl-1H-pyrazol-4-yl)-amide]
4 | 4.45 |  |  | c1ccc(-c2ncc(-c3cc[nH]n3)s2)cc1 [Compound I-1, 2-Phenyl-5-(1H-pyrazol-3-yl)-thiazole]
5 | 5.91 |  |  | O=C(Nc1c[nH]nc1-c1nc2ccccc2s1)C1CCC1 [Compound I-26, Cyclobutanecarboxylic acid (3-benzothiazol-2-yl-1H-pyrazol-4-yl)-amide]
6 | 6.67 |  | < 4.30 | O=C(NC1CCCC1)c1c[nH]nc1-c1nc(-c2ccccc2)cs1 [Compound I-20, N-cyclopentyl-3-(4-phenylthiazol-2-yl)-1H-pyrazole-4-carboxamide]
7 | < 5.00 |  | < 4.30 | Cc1ccc2sc(-c3n[nH]cc3C(=O)NC(C)(C)CO)cc2c1 [Compound I-9, N-(1-hydroxy-2-methylpropan-2-yl)-3-(5-methylbenzo[b]thiophen-2-yl)-1H-pyrazole-4-carboxamide]
8 |  | 6.53 | 5.59 | CC(C)NC(=O)c1c[nH]nc1-c1nc2ccccc2[nH]1 [Compound I-36, 3-(1H-Benzoimidazol-2-yl)-1H-pyrazole-4-carboxylic acid isopropylamide]
9 | < 5.00 |  | < 4.30 | Cc1ccc2sc(-c3n[nH]cc3C(=O)NC(C)(C)C)cc2c1 [Compound I-10, N-tert-butyl-3-(5-methylbenzo[b]thiophen-2-yl)-1H-pyrazole-4-carboxamide]
10 |  | 6.85 | 5.54 | CC(C)(C)NC(=O)c1c[nH]nc1-c1nc2ccccc2[nH]1 [Compound I-37, 3-(1H-Benzoimidazol-2-yl)-1H-pyrazole-4-carboxylic acid tert-butylamide]
11 |  |  | < 4.30 | CN1CCC(NC(=O)c2c[nH]nc2-c2nc3c(s2)CCCC3)CC1 [Compound I-24, N-(1-methylpiperidin-4-yl)-3-(4,5,6,7-tetrahydrobenzo[d]thiazol-2-yl)-1H-pyrazole-4-carboxamide]
12 | 5.33 | 4.81 |  | CC(=O)OCC(C)(C)C(=O)Nc1c[nH]nc1-c1nc2ccccc2s1 [Compound I-27, Acetic acid 2-(3-benzothiazol-2-yl-1H-pyrazol-4-ylcarbamoyl)-2-methyl-propyl ester]
13 | 5.89 | 5.33 |  | O=C(Nc1c[nH]nc1-c1nc2ccccc2s1)C1CCCC1 [Compound I-5, Cyclopenanecarboxylic acid (3-benzothiazol-2-yl-1H-pyrazol-4-yl)-amide]
14 | 5.10 | < 4.47 |  | COc1cccc(-c2n[nH]cc2C(=O)NC(C)(C)C)n1 [Compound I-11, N-tert-butyl-3-(6-methoxypyridin-2-yl)-1H-pyrazole-4-carboxamide]
15 | 6.95 | < 4.47 |  | CCOC(=O)c1c[nH]nc1-c1nc2ccccn2n1 [Compound I-2, 3-[1,2,4]Triazolo[1,5-a]pyridin-2-yl-1H-pyrazole-4-carboxylic acid ethyl ester]
16 | 5.68 | 5.27 |  | CC(C)C(=O)Nc1c[nH]nc1-c1nc2ccccc2s1 [Compound I-3, N-(3-Benzothiazol-2-yl-1H-pyrazol-4-yl)-isobutyramide]
17 | 5.26 | < 4.51 |  | c1cncc(Nc2scnc2-c2nc3cnccc3[nH]2)c1 [Compound I-41]
18 | < 5.00 | < 4.47 |  | CCOC(=O)c1c[nH]nc1-c1nc2c(s1)CCCC2 [Compound I-14, ethyl 3-(4,5,6,7-tetrahydrobenzo[d]thiazol-2-yl)-1H-pyrazole-4-carboxylate]
19 | 6.31 | 6.12 |  | Cc1cccc2[nH]c(-c3ncsc3Nc3cccnc3)nc12 [Compound I-40, 4-(4-methyl-1H-benzo[d]imidazol-2-yl)-N-(pyridin-3-yl)thiazol-5-amine]
20 | 5.95 | 5.19 |  | CC(C)(CO)C(=O)Nc1c[nH]nc1-c1nc2ccccc2s1 [Compound I-28, N-(3-Benzothiazol-2-yl-1H-pyrazol-4-yl)-3-hydroxy-2,2-dimethyl-propionamide]
21 | 5.70 | < 4.47 |  | O=C(NC1CCOCC1)c1c[nH]nc1-c1nc2c(s1)CCC2 [Compound I-22, 3-(5,6-dihydro-4H-cyclopenta[d]thiazol-2-yl)-N-(tetrahydro-2H-pyran-4-yl)-1H-pyrazole-4-carboxamide]
22 |  | < 4.47 | < 4.30 | CC(C)(C)NC(=O)c1c[nH]nc1-c1nc2c(s1)CCCC2 [Compound I-19, N-tert-butyl-3-(4,5,6,7-tetrahydrobenzo[d]thiazol-2-yl)-1H-pyrazole-4-carboxamide]
23 | 5.10 | < 4.47 |  | O=C(NC1CCOCC1)c1c[nH]nc1-c1nc2c(s1)CCCC2 [Compound I-23, N-(tetrahydro-2H-pyran-4-yl)-3-(4,5,6,7-tetrahydrobenzo[d]thiazol-2-yl)-1H-pyrazole-4-carboxamide]
24 | 5.56 | 4.92 |  | O=C(Nc1c[nH]nc1-c1nc2ccccc2s1)C1CC1 [Compound I-6, Cyclopropanecarboxylic acid (3-benzothiazol-2-yl-1H-pyrazol-4-yl)-amide]
25 |  | 6.32 | 6.06 | O=C(NC1CCOCC1)c1c[nH]nc1-c1nc2ccccc2[nH]1 [Compound I-38, 3-(1H-Benzoimidazol-2-yl)-1H-pyrazole-4-carboxylic acid (tetrahydro-pyran-4-yl)-amide]
26 | 6.21 | 5.42 |  | CC(C)(C)C(=O)Nc1c[nH]nc1-c1nc2ccccc2s1 [Compound I-4, N-(3-Benzothiazol-2-yl-1H-pyrazol-4-yl)-2,2-dimethyl-propionamide]
27 |  | 6.01 | 5.54 | CC(C)(CO)NC(=O)c1c[nH]nc1-c1nc2ccccc2[nH]1 [Compound I-39, 3-(1H-Benzoimidazol-2-yl)-1H-pyrazole-4-carboxylic acid (2-hydroxy-1,1-dimethyl-ethyl)-amide]

Row | SMILES | pIC50 [1] | pIC50 [2] | pIC50 [3]
28 | CCC(C)(C)Nc1scnc1-c1nc2cc(C)ccc2[nH]1 [Compound I-42, 4-(5-methyl-1H-benzo[d]imidazol-2-yl)-N-tert-pentylthiazol-5-amine] | 5.79 |  | < 4.30
29 | Cc1ccc2[nH]c(-c3ncsc3NC3CCCC3)nc2c1 [Compound I-43, N-cyclopentyl-4-(5-methyl-1H-benzo[d]imidazol-2-yl)thiazol-5-amine] | 6.16 | < 4.47 | 
30 | Cc1ccc2[nH]c(-c3ncsc3NCC(C)C)nc2c1 [Compound I-44, N-isobutyl-4-(5-methyl-1H-benzo[d]imidazol-2-yl)thiazol-5-amine] | 6.21 | 5.10 | 
